Measurements published in US12558386B2, “Methods and compositions to modulate antibiotic resistance and gastrointestinal microbiota” (OHIO STATE INNOVATION FOUNDATION, priority 2018, dated 2026).
In brackets after ≈: the same amount, converted by molar mass. Read-outs that look alike come from different tables or passages of the source.

What was measured:
[1] = system: E. coli CA-20; test: MIC assessment (TREK Sensititre); type: cell-based, Escherichia coli
Method: (§1) Bacterial strains. Multiple Amp^r strains from feces of broiler chickens without antibiotic treatment were recovered on Columbia blood Agar base (Becton, […] Dickinson and Company, Franklin Lakes, NJ) supplemented with 5% defibrinated sheep blood (Thermo Scientific™, Grand Island, NY). The strains were maintained in Columbia broth (Becton Dickinson and Company, Franklin Lakes, NJ), and propagated by aerobic growth at 37° C., and further subjected to strain identification and Minimum Inhibition Concentration (MIC) assessments.
(§2) Minimum inhibition concertation (MIC) assessment. A TREK Sensititre diagnostic system (Thermo scientific, Oakwood Village, OH, USA) was used to assess the AR phenotype and MIC of isolated strains. Protocols to use this system can be found on www.trekds.com. Cation-adjusted Mueller Hinton Broth (Becton, Dickinson and Company, MD, USA) was used as basic medium.

[2] = system: E. coli CA-4; test: MIC assessment (TREK Sensititre); type: cell-based, Escherichia coli
Method: as §1, §2

[3] = system: E. coli CA-1; test: MIC assessment (TREK Sensititre); type: cell-based, Escherichia coli
From the text: Bacterial strains. Multiple Amp^r strains from feces of broiler chickens without antibiotic treatment were recovered on Columbia blood Agar base (Becton, […] Dickinson and Company, Franklin Lakes, NJ) supplemented with 5% defibrinated sheep blood (Thermo Scientific™, Grand Island, NY).
as §2

[4] = system: Lactobacillus crispatus CG-12; test: MIC assessment (TREK Sensititre); type: cell-based
Method: (§3) Multiple commensal bacterial strains from chicken feces were recovered from Columbia blood Agar base (Becton, […] Dickinson and Company, Franklin Lakes, NJ) supplemented with 5% defibrinated sheep blood (Thermo Scientific™, Grand Island, NY), and maintained in Columbia broth (Becton Dickinson and Company, Franklin Lakes, NJ) and propagated by anaerobic growth at 37° C. The strains were subjected to antibiotic susceptibility assessment followed by strain identification.
as §2

[5] = system: Three Amp^r E. coli; test: MIC assessment, summary for the three strains; type: cell-based, Escherichia coli; details: E. coli CA-1, CA-4 and CA-20 together
Method: as §1, §2

[6] = system: CG-12; test: Screening of antibiotic susceptible commensal strains on antibiotic agar plates; type: cell-based, Lactobacillus crispatus; details: 16 μg/mL tetracycline, 100 μg/mL erythromycin, 32 μg/mL ampicillin, 152 μg/mL sulfamethoxazole with 8 μg/mL trimethoprim
Method: as §3
Screening of antibiotic susceptible commensal strains. Recovered commensal strain isolates (over 1000 colonies) were spotted on Columbia broth (Becton, […] Dickinson and Company, Franklin Lakes, NJ) agar plates containing each of the four antibiotics for rapid assessment of phenotypic resistance profiles. Screened antibiotics included 16 μg/mL tetracycline (Sigma-Aldrich, St. Louis, MO, USA), 100 μg/mL erythromycin (Fisher Scientific, Waltham, MA, USA), 32 μg/mL ampicillin (Sigma-Aldrich), and 152 μg/mL sulfamethoxazole (Sigma-Aldrich) with 8 μg/mL trimethoprim (Sigma-Aldrich).

[7] = system: poultry fecal/gut microbiota (Proteobacteria, ESBL E. coli); test: Chicken study, metagenomics assessment #1 of pooled feces (FIG. 5); type: in vivo, chickens; details: Tween 80 treatment (Lanes 6, 8)
From the text: FIGS. 5A and 5B show the impact of probiotic treatment on bacterial population in pooled feces of chickens. FIG. 5A) Phylum level; FIG. 5B) Class level. The treatments include Lane 1 (no, cocktail, no): no ESBL E. coli inoculation for 4 days, then inoculated with probiotic cocktail but no Tween 80; Lane 2 (no; no, no): no E. coli, no probiotics, no Tween 80; Lane 3: (probiotics, E. coli, no): probiotic cocktail for 4 days, followed by E. coli, but no Tween 80); Lane 4 (Yes, CG12, no): E. coli for 4 days, followed by Lb. crispatus (WZ12) for 4 days but no Tween 80; Lane 5 (yes, cocktail, no): E. coli for 4 days, followed by probiotic cocktail for 4 days, no Tween; Lane 6 ((yes, cocktail, yes): E. coli for 4 days, followed by probiotic cocktail for 4 days, with Tween 80; Lane 7 (Yes, no, no): E. coli for 4 days, saline for 4 days (no probiotics no Tween); Lane 8 (yes, no, yes): ESBL E. coli for 4 days, no probiotics but with Tween 80 for 4 days.
Animal Studies. The probiotics as disclosed herein were applied to chickens raised in a poultry facility, with the aim to examine the effectiveness of the treatment phenotypically and genetically (fecal microbiota) and physiologically (chickens); and to adjust receipt and procedure of feeding if necessary.
Treatments effective in modulating gut microbiota. […]

[8] = Escherichia coli, CA20, E. coli CA-20, read-out: MIC
[9] = Escherichia coli, CA4, E. coli CA-4, read-out: MIC
[10] = Escherichia coli, CA1, E. coli CA-1, read-out: MIC
[11] = Lactobacillus crispatus, CG12, L. crispatus CG-12, read-out: MIC

Compound: quinupristin/dalfopristin [SYN]
- MIC ([1]; E. coli CA-20): >4 µg/mL
- MIC ([2]; E. coli CA-4): >4 µg/mL
- MIC ([3]; E. coli CA-1): >4 µg/mL
- MIC ([4]; L. crispatus CG-12): 0.25 µg/mL

Compound: CCCCCCCCCC(=O)N[C@@H](Cc1c[nH]c2ccccc12)C(=O)N[C@H](CC(N)=O)C(=O)N[C@@H](CC(=O)O)C(=O)N[C@@H]1C(=O)NCC(=O)N[C@@H](CCCN)C(=O)N[C@@H](CC(=O)O)C(=O)N[C@H](C)C(=O)N[C@@H](CC(=O)O)C(=O)NCC(=O)N[C@H](CO)C(=O)N[C@@H]([C@H](C)CC(=O)O)C(=O)N[C@@H](CC(=O)c2ccccc2N)C(=O)O[C@@H]1C [DAP, daptomycin]
- MIC [1, 8]: > 8 µg/mL
- MIC [2, 9]: > 8 µg/mL
- MIC [3, 10]: > 8 µg/mL
- resistance phenotype from MIC, in words [5]: resistant
- resistance phenotype from MIC, in words ([4]; L. crispatus CG-12): resistant
- MIC [4, 11]: 4 µg/mL (≈ 2.47 µM)

Compound: [H]/N=C(/N)N[C@H]1[C@H](O)[C@@H](O)[C@H](O[C@@H]2O[C@@H](C)[C@](O)(C=O)[C@H]2O[C@@H]2O[C@@H](CO)[C@H](O)[C@@H](O)[C@@H]2NC)[C@@H](N/C(N)=N\[H])[C@@H]1O [STR, streptomycin]
- MIC [1, 8]: < 1000 µg/mL
- MIC [2, 9]: < 1000 µg/mL
- MIC [3, 10]: < 1000 µg/mL
- MIC [4, 11]: < 1000 µg/mL

Compound: C[C@H]1COc2c(N3CCN(C)CC3)c(F)cc3c(=O)c(C(=O)O)cn1c23 [LEVO, levofloxacin]
- MIC [1, 8]: < 0.25 µg/mL
- MIC [2, 9]: < 0.25 µg/mL
- MIC [3, 10]: < 0.25 µg/mL
- MIC [4, 11]: > 8 µg/mL

Compound: COc1c(N2CCNC(C)C2)c(F)cc2c(=O)c(C(=O)O)cn(C3CC3)c12 (stereo not drawn) [GAT, gatifloxacin]
- MIC [1, 8]: < 1 µg/mL
- MIC [2, 9]: < 1 µg/mL
- MIC [3, 10]: < 1 µg/mL
- resistance phenotype from MIC, in words ([4]; L. crispatus CG-12): resistant
- MIC [4, 11]: 4 µg/mL (≈ 10.7 µM)

Compound: CCC[C@@H]1C[C@@H](C(=O)N[C@@H]([C@H]2O[C@H](SC)[C@H](O)[C@@H](O)[C@H]2O)[C@H](C)Cl)N(C)C1 [CLI, clindamycin]
- MIC [1, 8]: > 2 µg/mL
- MIC [2, 9]: > 2 µg/mL
- MIC [3, 10]: > 2 µg/mL
- MIC [4, 11]: < 0.12 µg/mL

Compound: CN[C@H](CC(C)C)C(=O)N[C@H]1C(=O)N[C@@H](CC(N)=O)C(=O)N[C@H]2C(=O)N[C@H]3C(=O)N[C@H](C(=O)N[C@H](C(=O)O)c4cc(O)cc(O)c4-c4cc3ccc4O)[C@H](O)c3ccc(c(Cl)c3)Oc3cc2cc(c3O[C@@H]2O[C@H](CO)[C@@H](O)[C@H](O)[C@H]2O[C@H]2C[C@](C)(N)[C@H](O)[C@H](C)O2)Oc2ccc(cc2Cl)[C@H]1O [VAN, vancomycin]
- MIC ([1]; Escherichia coli, CA20): > 128 µg/mL
- MIC ([2]; Escherichia coli, CA4): > 128 µg/mL
- MIC ([3]; Escherichia coli, CA1): > 128 µg/mL
- resistance phenotype from MIC, in words [5]: resistant
- MIC ([4]; Lactobacillus crispatus, CG12): < 1 µg/mL

Compound: sulfamethoxazole/trimethoprim [SXT]
- MIC ([4]; L. crispatus CG-12): 2/38
- phenotypic susceptibility on antibiotic agar plates [6]: susceptible

Compound: CCCCCCCC/C=C\CCCCCCCC(=O)OCCOCC(OCCO)C1OCC(OCCO)C1OCCO (stereo not drawn) [Tween 80]
- effect on fecal microbiota [7]: assisted the colonization of Proteobacteria but not the Firmicutes

Compound: CN(C)[C@@H]1C(O)=C(C(N)=O)C(=O)[C@@]2(O)C(O)=C3C(=O)c4c(O)cccc4[C@@](C)(O)[C@H]3C[C@@H]12 [TET, tetracycline]
- MIC [1, 8]: < 2 µg/mL
- MIC [2, 9]: < 2 µg/mL
- MIC [3, 10]: < 2 µg/mL
- MIC [4, 11]: < 2 µg/mL

Compound: CC[C@H]1OC(=O)[C@H](C)[C@@H](O[C@H]2C[C@@](C)(OC)[C@@H](O)[C@H](C)O2)[C@H](C)[C@@H](O[C@@H]2O[C@H](C)C[C@H](N(C)C)[C@H]2O)[C@](C)(O)C[C@@H](C)C(=O)[C@H](C)[C@@H](O)[C@]1(C)O [ERY, erythromycin]
- MIC [1, 8]: > 4 µg/mL
- MIC [2, 9]: > 4 µg/mL
- MIC [3, 10]: > 4 µg/mL
- resistance phenotype from MIC, in words [5]: resistant
- MIC [4, 11]: < 0.25 µg/mL
- phenotypic susceptibility on antibiotic agar plates [6]: susceptible

Compound: penicillin
- MIC ([1]; E. coli CA-20): >8 µg/mL
- MIC ([2]; E. coli CA-4): >8 µg/mL
- MIC ([3]; E. coli CA-1): >8 µg/mL
- resistance phenotype from MIC, in words [5]: high resistance
- MIC ([4]; L. crispatus CG-12): 0.5 µg/mL

Compound: CO[C@H]1/C=C/O[C@@]2(C)Oc3c(C)c(O)c4c(O)c(c(/C=N/N5CCN(C)CC5)c(O)c4c3C2=O)NC(=O)/C(C)=C\C=C\[C@H](C)[C@H](O)[C@@H](C)[C@@H](O)[C@@H](C)[C@H](OC(C)=O)[C@@H]1C [RIF, rifampin]
- MIC [1, 8]: 4 µg/mL (≈ 4.86 µM)
- MIC [2, 9]: > 4 µg/mL
- MIC [3, 10]: 4 µg/mL (≈ 4.86 µM)
- MIC [4, 11]: 1 µg/mL (≈ 1.22 µM)

Compound: O=C(O)c1cn(C2CC2)c2cc(N3CCNCC3)c(F)cc2c1=O [CIP, ciprofloxacin]
- resistance phenotype from MIC, in words ([4]; L. crispatus CG-12): resistant
- MIC [4, 11]: > 2 µg/mL

Compound: CC(=O)NC[C@H]1CN(c2ccc(N3CCOCC3)c(F)c2)C(=O)O1 [LZD, linezolid]
- MIC [1, 8]: > 8 µg/mL
- MIC [2, 9]: > 8 µg/mL
- MIC [3, 10]: > 8 µg/mL
- resistance phenotype from MIC, in words [5]: resistant
- MIC [4, 11]: 2 µg/mL (≈ 5.93 µM)

Compound: oxacillin + 2% NaC [OXA+]
- MIC ([1]; E. coli CA-20): 8 µg/mL
- MIC ([2]; E. coli CA-4): >8 µg/mL
- MIC ([3]; E. coli CA-1): >8 µg/mL
- resistance phenotype from MIC, in words [5]: high resistance
- MIC ([4]; L. crispatus CG-12): <0.25 µg/mL

Compound: gentamicin
- MIC ([1]; E. coli CA-20): 8 µg/mL
- MIC ([2]; E. coli CA-4): 4 µg/mL
- MIC ([3]; E. coli CA-1): 4 µg/mL
- MIC ([4]; L. crispatus CG-12): 16 µg/mL

Compound: CO/N=C(\C(=O)N[C@@H]1C(=O)N2C(C(=O)O)=C(CSc3nc(=O)c(=O)[nH]n3C)CS[C@H]12)c1csc(N)n1 [AXO, ceftriaxone]
- MIC [1, 8]: 16 µg/mL (≈ 28.9 µM)
- resistance phenotype from MIC, in words ([1]; only E. coli CA-20): some resistant
- MIC [2, 9]: < 8 µg/mL
- MIC [3, 10]: < 8 µg/mL
- MIC [4, 11]: < 8 µg/mL
